In US20070049564A1 (Wyeth, priority 2005, published 2007):
≈ marks a conversion by molar mass, not a printed value. Read-outs that look alike come from different tables or passages of the source.

Experiments:
[1] = system: Staph.; test: Range of MIC for Staph. strains, including MRSA; conditions: Staphylococcus aureus
[2] = system: E. coli GC 4560; test: MIC, broth microdilution; conditions: Escherichia coli, GC4560, E. coli GC 4560
[3] = system: E. coli GC 2236; test: MIC, broth microdilution; conditions: Escherichia coli, GC2236, E. coli GC 2236
[4] = system: E. coli GC 2203; test: MIC, broth microdilution; conditions: Escherichia coli, GC2203, E. coli GC 2203
[5] = system: E. faecalis GC 4555; test: MIC, broth microdilution; conditions: Enterococcus faecalis, GC4555, E. faecalis GC 4555
[6] = system: S. aureus GC 6467; test: MIC, broth microdilution; conditions: Staphylococcus aureus, GC6467, S. aureus GC 6467
Protocol: (§1) Antimicrobial susceptibility testing. The in vitro activities of the antibiotics are determined by the broth microdilution method as recommended by the National Committee for Clinical Laboratory Standards (NCCLS) (1). Mueller-Hinton II broth (MHBII)(BBL Cockeysville, Md.) is the medium employed in the testing procedures. Microtiter plates containing serial dilutions of each antimicrobial agent are inoculated with each organism to yield the appropriate density (10^5 CFU/ml) in a 100 μl final volume. The plates are incubated for 18-22 hours at 35° C. in ambient air.
(§2) Representative compounds were first incubated in mouse serum for an hour prior to the in vitro testing against a panel of selected gram-positive and gram-negative bacteria strains. All compounds were also pre-incubated in water for an hour prior to testing as control.

[7] = system: S. aureus GC 1131; test: MIC, broth microdilution; conditions: Staphylococcus aureus, GC1131, S. aureus GC 1131
[8] = system: E. coli GC 2231; test: MIC, broth microdilution; conditions: Escherichia coli, GC2231, E. coli GC 2231
[9] = system: S. typhimurium GC 2172; test: MIC, broth microdilution; conditions: Salmonella enterica, TYPHIMURIUM, S. typhimurium GC 2172
[10] = system: S. pneumoniae* GC 4465; test: MIC, broth microdilution; conditions: Streptococcus pneumoniae, S. pneumoniae* GC 4465
[11] = system: S. aureus GC 6466; test: MIC, broth microdilution; conditions: Staphylococcus aureus, GC6466, S. aureus GC 6466
[12] = system: S. aureus GC 1079; test: MIC, broth microdilution; conditions: Staphylococcus aureus, GC1079, S. aureus GC 1079
[13] = system: E. coli GC 2272; test: MIC, broth microdilution; conditions: Escherichia coli, GC2272, E. coli GC 2272
[14] = system: E. coli GC 2235; test: MIC, broth microdilution; conditions: Escherichia coli, GC2235, E. coli GC 2235
Protocol: as §1
(§3) Representative compounds were first incubated in mouse serum for an hour prior to the in vitro testing against a panel of selected gram-positive and gram-negative bacteria strains. All compounds were also pre-incubated in water for an hour prior to testing as control. Representative compounds of Formula I were incubated in human serum prior to MIC determination.

[15] = system: E. coli GC 2234; test: MIC, broth microdilution; conditions: Escherichia coli, GC2234, E. coli GC 2234
[16] = system: E. coli GC 2233; test: MIC, broth microdilution; conditions: Escherichia coli, GC2233, E. coli GC 2233
[17] = system: E. coli GC 6465; test: MIC, broth microdilution; conditions: Escherichia coli, GC6465, E. coli GC 6465
[18] = system: E. faecium GC 4556; test: MIC, broth microdilution; conditions: Enterococcus faecium, GC4556, E. faecium GC 4556
Protocol: as §1, §3

[19] = system: S. epidermidis GC 4935; test: MIC, broth microdilution; conditions: Staphylococcus epidermidis, GC4935, S. epidermidis GC 4935
[20] = system: E. faecalis GC 2267; test: MIC, broth microdilution; conditions: Enterococcus faecalis, GC2267, E. faecalis GC 2267
Protocol: as §1, §2

[21] = MRSA, read-out: Minimum inhibitory concentration (MIC), Staph. (mouse serum)
[22] = MRSA, read-out: Minimum inhibitory concentration (MIC), Staph. (water)
[23] = MRSA, read-out: Range of MIC, Staph (Mouse Serum)
[24] = MRSA, read-out: Range of MIC, Staph (Water)

Which results are given for `CCCCN(CC(=O)Nc1cc(N(C)C)c2c(c1O)C(=O)C1=C(O)[C@]3(O)C(=O)C(C(N)=O)=C(O)[C@@H](N(C)C)C3CC1C2)C(=O)OCOC(=O)c1ccc(C)cc1` (stereo partly drawn) [Example 3, ({[(2-{[(7S,10aS)-9-(aminocarbonyl)-4,7-bis(dimethylamino)-1,8,10a,11-tetrahydroxy-10,12-dioxo-5,5a,6,6a,7,10,10a,12-octahydrotetracen-2-yl]amino}-2-oxoethyl)(butyl)amino]carbonyl}oxy)methyl 4-methylbenzoate]?
MIC [1, 21]: 1 to 4 µg/mL (≈ 1.29 to 5.14 µM); MIC [1, 22]: 4 to 32 µg/mL (≈ 5.14 to 41.1 µM); MIC [1, 23]: 1 to 4 µg/mL (≈ 1.29 to 5.14 µM); MIC [1, 24]: 4 to 32 µg/mL (≈ 5.14 to 41.1 µM); MIC ([2]; Mouse Serum pre-incubation): 0.5 µg/mL (≈ 0.643 µM); MIC ([2]; Water pre-incubation): 32 µg/mL (≈ 41.1 µM); MIC ([3]; Mouse Serum pre-incubation): 1 µg/mL (≈ 1.29 µM); MIC ([3]; Water pre-incubation): > 64 µg/mL; MIC ([4]; Mouse Serum pre-incubation): 1 µg/mL (≈ 1.29 µM); MIC ([4]; Water pre-incubation): > 64 µg/mL; MIC ([5]; Mouse Serum pre-incubation): 1 µg/mL (≈ 1.29 µM); MIC ([5]; Water pre-incubation): 8 µg/mL (≈ 10.3 µM); MIC ([6]; Mouse Serum pre-incubation): 4 µg/mL (≈ 5.14 µM); MIC ([6]; Water pre-incubation): 32 µg/mL (≈ 41.1 µM); MIC ([7]; Mouse Serum pre-incubation): 2 µg/mL (≈ 2.57 µM); MIC ([7]; Water pre-incubation): 4 µg/mL (≈ 5.14 µM); MIC ([8]; Mouse Serum pre-incubation): 2 µg/mL (≈ 2.57 µM); MIC ([8]; Water pre-incubation): > 64 µg/mL; MIC ([9]; Mouse Serum pre-incubation): 8 µg/mL (≈ 10.3 µM); MIC ([9]; Water pre-incubation): > 64 µg/mL; MIC ([10]; Mouse Serum pre-incubation): 0.12 µg/mL (≈ 0.154 µM); MIC ([10]; Water pre-incubation): 0.25 µg/mL (≈ 0.321 µM); MIC ([11]; Mouse Serum pre-incubation): 1 µg/mL (≈ 1.29 µM); MIC ([11]; Water pre-incubation): 4 µg/mL (≈ 5.14 µM); MIC ([12]; Mouse Serum pre-incubation): 2 µg/mL (≈ 2.57 µM); MIC ([12]; Water pre-incubation): 32 µg/mL (≈ 41.1 µM); MIC ([13]; Mouse Serum pre-incubation): 1 µg/mL (≈ 1.29 µM); MIC ([13]; Water pre-incubation): > 64 µg/mL; MIC ([14]; Mouse Serum pre-incubation): 1 µg/mL (≈ 1.29 µM); MIC ([14]; Water pre-incubation): > 64 µg/mL; MIC ([15]; Mouse Serum pre-incubation): 1 µg/mL (≈ 1.29 µM); MIC ([15]; Water pre-incubation): > 64 µg/mL; MIC ([16]; Mouse Serum pre-incubation): 1 µg/mL (≈ 1.29 µM); MIC ([16]; Water pre-incubation): > 64 µg/mL; MIC ([17]; Mouse Serum pre-incubation): 8 µg/mL (≈ 10.3 µM); MIC ([17]; Water pre-incubation): > 64 µg/mL; MIC ([18]; Mouse Serum pre-incubation): 2 µg/mL (≈ 2.57 µM); MIC ([18]; Water pre-incubation): 16 µg/mL (≈ 20.6 µM); MIC ([19]; Mouse Serum pre-incubation): 4 µg/mL (≈ 5.14 µM); MIC ([19]; Water pre-incubation): 8 µg/mL (≈ 10.3 µM); MIC ([20]; Mouse Serum pre-incubation): 2 µg/mL (≈ 2.57 µM); MIC ([20]; Water pre-incubation): 32 µg/mL (≈ 41.1 µM)

With `CCCCN(CC(=O)Nc1cc(N(C)C)c2c(c1O)C(=O)C1=C(O)[C@]3(O)C(=O)C(C(N)=O)=C(O)[C@@H](N(C)C)[C@@H]3C[C@@H]1C2)C(=O)OCOC(=O)c1ccc(F)cc1` [Example 4, ({[(2-{[(5aR,6aS,7S,10aS)-9-(aminocarbonyl)-4,7-bis(dimethylamino)-1,8,10a,11-tetrahydroxy-10,12-dioxo-5,5a,6,6a,7,10,10a,12-octahydrotetracen-2-yl]amino}-2-oxoethyl)(butyl)amino]carbonyl}oxy)methyl 4-fluorobenzoate] as the compound, how does the MIC [1, 21] read?
Its MIC is 0.5 to 2 µg/mL (≈ 0.64 to 2.56 µM).

What about the MIC [1, 22] of the same compound?
Its MIC is 2 to 16 µg/mL (≈ 2.56 to 20.5 µM).

And the MIC [1, 23]?
The MIC was 0.5 to 2 µg/mL (≈ 0.64 to 2.56 µM).

What about the MIC [1, 24] of the same compound?
The MIC was 2 to 16 µg/mL (≈ 2.56 to 20.5 µM).

And the MIC ([1]; read-out: Minimum inhibitory concentration (MIC), Staph (Human Serum))?
The MIC was 0.5 to 4 µg/mL (≈ 0.64 to 5.12 µM).

What about the MIC ([1]; read-out: Minimum inhibitory concentration (MIC), Staph (Water)) of the same compound?
Its MIC is 2 to 8 µg/mL (≈ 2.56 to 10.2 µM).

And the MIC ([2]; Mouse Serum pre-incubation)?
Its MIC is 0.25 µg/mL (≈ 0.32 µM).

What about the MIC ([2]; Water pre-incubation) of the same compound?
Its MIC is 8 µg/mL (≈ 10.2 µM).

And the MIC ([3]; Mouse Serum pre-incubation)?
The MIC was 1 µg/mL (≈ 1.28 µM).

What about the MIC ([3]; Water pre-incubation) of the same compound?
The MIC was 64 µg/mL (≈ 81.9 µM).

What about the MIC ([4]; Mouse Serum pre-incubation) of the same compound?
Its MIC is 1 µg/mL (≈ 1.28 µM).

What about the MIC ([4]; Water pre-incubation) of the same compound?
Its MIC is 64 µg/mL (≈ 81.9 µM).

And the MIC ([5]; Mouse Serum pre-incubation)?
The MIC was 1 µg/mL (≈ 1.28 µM).

What about the MIC ([5]; Water pre-incubation) of the same compound?
Its MIC is 8 µg/mL (≈ 10.2 µM).

What about the MIC ([6]; Mouse Serum pre-incubation) of the same compound?
The MIC was 2 µg/mL (≈ 2.56 µM).

What about the MIC ([6]; Water pre-incubation) of the same compound?
Its MIC is 8 µg/mL (≈ 10.2 µM).

What about the MIC ([7]; Mouse Serum pre-incubation) of the same compound?
The MIC was 1 µg/mL (≈ 1.28 µM).

What about the MIC ([7]; Water pre-incubation) of the same compound?
Its MIC is 4 µg/mL (≈ 5.12 µM).

And the MIC ([8]; Mouse Serum pre-incubation)?
The MIC was 1 µg/mL (≈ 1.28 µM).

And the MIC ([8]; Water pre-incubation)?
The MIC was 64 µg/mL (≈ 81.9 µM).

What about the MIC ([9]; Mouse Serum pre-incubation) of the same compound?
The MIC was 4 µg/mL (≈ 5.12 µM).

And the MIC ([9]; Water pre-incubation)?
The MIC was greater than 64 µg/mL.

And the MIC ([10]; Mouse Serum pre-incubation)?
The MIC was less than 0.06 µg/mL.

What about the MIC ([10]; Water pre-incubation) of the same compound?
The MIC was 0.12 µg/mL (≈ 0.153 µM).

What about the MIC ([11]; Mouse Serum pre-incubation) of the same compound?
The MIC was 0.5 µg/mL (≈ 0.64 µM).

And the MIC ([11]; Water pre-incubation)?
The MIC was 2 µg/mL (≈ 2.56 µM).

And the MIC ([12]; Mouse Serum pre-incubation)?
The MIC was 1 µg/mL (≈ 1.28 µM).

What about the MIC ([12]; Water pre-incubation) of the same compound?
The MIC was 4 µg/mL (≈ 5.12 µM).

And the MIC ([13]; Mouse Serum pre-incubation)?
The MIC was 1 µg/mL (≈ 1.28 µM).

What about the MIC ([13]; Water pre-incubation) of the same compound?
Its MIC is 64 µg/mL (≈ 81.9 µM).

What about the MIC ([14]; Mouse Serum pre-incubation) of the same compound?
The MIC was 1 µg/mL (≈ 1.28 µM).

And the MIC ([14]; Water pre-incubation)?
Its MIC is 64 µg/mL (≈ 81.9 µM).

What about the MIC ([15]; Mouse Serum pre-incubation) of the same compound?
Its MIC is 1 µg/mL (≈ 1.28 µM).

And the MIC ([15]; Water pre-incubation)?
Its MIC is 64 µg/mL (≈ 81.9 µM).

And the MIC ([16]; Mouse Serum pre-incubation)?
Its MIC is 1 µg/mL (≈ 1.28 µM).

And the MIC ([16]; Water pre-incubation)?
The MIC was 64 µg/mL (≈ 81.9 µM).

And the MIC ([17]; Mouse Serum pre-incubation)?
The MIC was 4 µg/mL (≈ 5.12 µM).

And the MIC ([17]; Water pre-incubation)?
The MIC was greater than 64 µg/mL.

And the MIC ([18]; Mouse Serum pre-incubation)?
The MIC was 1 µg/mL (≈ 1.28 µM).

What about the MIC ([18]; Water pre-incubation) of the same compound?
The MIC was 4 µg/mL (≈ 5.12 µM).

What about the MIC ([19]; Mouse Serum pre-incubation) of the same compound?
Its MIC is 2 µg/mL (≈ 2.56 µM).

And the MIC ([19]; Water pre-incubation)?
Its MIC is 4 µg/mL (≈ 5.12 µM).

What about the MIC ([20]; Mouse Serum pre-incubation) of the same compound?
The MIC was 1 µg/mL (≈ 1.28 µM).

What about the MIC ([20]; Water pre-incubation) of the same compound?
The MIC was 8 µg/mL (≈ 10.2 µM).
